{"source": "ChEMBL document CHEMBL4732271", "about": "“Novel Substituted Thiadiazoles as Splicing Modulators for Modulating Splicing of mRNA and Uses Thereof for Treating Diseases” (ACS Med Chem Lett, 2021)", "key": {"SMN2 pre-mRNA [1]": {"target": "SMN2 pre-mRNA", "assay": "Modulation of SMN2 mRNA FL splicing in human spinal muscular atrophy patient fibroblasts incubated for 24 hrs by qPCR analysis", "format": "tissue-based"}, "SMN2 pre-mRNA [2]": {"target": "SMN2 pre-mRNA", "assay": "Modulation of SMN2 mRNA FL splicing in human spinal muscular atrophy patient fibroblasts assessed as SMN2 protein potency incubated for 48 hrs by mesoscale discovery assay"}, "SMN2 pre-mRNA [3]": {"target": "SMN2 pre-mRNA", "assay": "Modulation of SMN2 mRNA D7 splicing in human spinal muscular atrophy patient fibroblasts incubated for 24 hrs by qPCR analysis", "format": "tissue-based"}}, "data": [{"smiles": "CN(c1nnc(-c2ccc(-c3cnn(CF)c3)cc2O)s1)[C@@H]1C[C@H]2CC[C@H](N2)[C@@H]1F", "values": [{"measurement": "EC50", "setting": "SMN2 pre-mRNA [1]", "value": 16000, "unit": "pM"}, {"measurement": "EC50", "setting": "SMN2 pre-mRNA [2]", "value": 10, "unit": "pM"}, {"measurement": "IC50", "setting": "SMN2 pre-mRNA [3]", "value": 16000, "unit": "pM"}]}, {"smiles": "COc1cc(-c2ccc(-c3nnc(N(C4CC4)[C@@H]4C[C@H]5CC[C@H](N5)C4F)s3)c(O)c2)cc(F)n1", "note": "(stereo partly drawn)", "values": [{"measurement": "EC50", "setting": "SMN2 pre-mRNA [1]", "value": 16000, "unit": "pM"}, {"measurement": "EC50", "setting": "SMN2 pre-mRNA [2]", "value": 10, "unit": "pM"}, {"measurement": "IC50", "setting": "SMN2 pre-mRNA [3]", "value": 10, "unit": "pM"}]}, {"smiles": "CN(c1nnc(-c2ccc(-c3cn[nH]c3)cc2O)s1)[C@@H]1C[C@H]2CC[C@H](N2)[C@@H]1F", "values": [{"measurement": "EC50", "setting": "SMN2 pre-mRNA [1]", "value": 10, "unit": "pM"}, {"measurement": "EC50", "setting": "SMN2 pre-mRNA [2]", "value": 10, "unit": "pM"}, {"measurement": "IC50", "setting": "SMN2 pre-mRNA [3]", "value": 10, "unit": "pM"}]}, {"smiles": "CN(c1nnc(-c2ccc(-c3cnn(C)c3)cc2O)s1)[C@@H]1C[C@H]2CC[C@H](N2)[C@@H]1F", "values": [{"measurement": "EC50", "setting": "SMN2 pre-mRNA [1]", "value": 16000, "unit": "pM"}, {"measurement": "EC50", "setting": "SMN2 pre-mRNA [2]", "value": 10, "unit": "pM"}, {"measurement": "IC50", "setting": "SMN2 pre-mRNA [3]", "value": 10, "unit": "pM"}]}, {"smiles": "CN(c1nnc(-c2ccc(-c3cnn(C)c3)cc2O)s1)[C@H]1C[C@@H]2CCC[C@@H](N2)[C@H]1F", "values": [{"measurement": "EC50", "setting": "SMN2 pre-mRNA [1]", "value": 16000, "unit": "pM"}, {"measurement": "EC50", "setting": "SMN2 pre-mRNA [2]", "value": 10, "unit": "pM"}, {"measurement": "IC50", "setting": "SMN2 pre-mRNA [3]", "value": 10, "unit": "pM"}]}, {"smiles": "CN(c1nnc(-c2cc(F)c(-c3cnn(C)c3)cc2O)s1)[C@@H]1C[C@H]2CC[C@H](N2)[C@@H]1F", "values": [{"measurement": "EC50", "setting": "SMN2 pre-mRNA [1]", "value": 16000, "unit": "pM"}, {"measurement": "EC50", "setting": "SMN2 pre-mRNA [2]", "value": 10, "unit": "pM"}, {"measurement": "IC50", "setting": "SMN2 pre-mRNA [3]", "value": 10, "unit": "pM"}]}]}
